BindingDB's records for doi:10.1016/s0960-894x(98)00284-4 (Glaxowellcome, 1998)

Biological target: Glutamate receptor ionotropic, NMDA 1 (Rattus norvegicus, UniProt P35439)
Experiment: ChEBML_140329
Description: In vitro affinity of compound for the glycinergic site associated with NMDA receptor was assessed by inhibition of the binding of [3H]glycine

| Ki [nM] | SMILES |
| --- | --- |
| 7.5 | O=C(O)c1[nH]c2cc(Cl)cc(Cl)c2c1/C=C1\CCN(c2ccccc2)C1=O |
| 7.3 | O=C(O)c1[nH]c2cc(Cl)cc(Cl)c2c1/C=C1\CCCN(c2ccccc2)C1=O |
